Several values for one entry are separate records, joined by “and”; a condition that tells them apart may be missing. Equal entries are not always repeated.
Each compound was assayed on P. falciparum 3D7 growth, pLDH absorbance (assay: P. falciparum 3D7 growth inhibition, dose response, strain 3D7 (AID 2305)).

First: CN(C)c1cccc(CCNCCc2c[nH]c3ccc(Cl)cc23)c1
Second: Cc1cc(N)nc2ccc(CNCCc3ccccc3Br)cc12
The IC50 of the first is 3.7-fold higher: 0.44 µM for the first, 0.12 µM for the second. The second is the more potent here.

First: Cc1cc(S(=O)(=O)N2CCCCC(c3ccc(C(F)(F)F)cc3)=N2)c(Cl)cc1Cl
Second: CN1CC[C@@H](Oc2cc(C(=O)NCc3ccc(Cl)c(Cl)c3)ccc2C(F)(F)F)C1
The IC50 of the first is 2.5-fold lower: 0.5 µM for the first, 1.25 µM for the second.

Going from `CC(C)COc1ccc2ccccc2c1CNCCCCCCNCc1c(OCC(C)C)ccc2ccccc12` to `C[C@H](Cc1ccc(OCCCCCCOc2ccccc2)cc1)NC[C@H](O)c1cccc(Cl)c1`, the IC50 falls from 0.7 µM to 0.07 µM (10-fold). The second is the more potent here.

Compared with `O=C(Nc1ccc2c(c1)CCN2C1CCN(Cc2ccc(O)cc2)C1)c1ccco1` (stereo not given), `O=C(Nc1ccc(OC2CCN(Cc3ccc(F)cc3)C2)c(Cl)c1)c1ccco1` (stereo not given) is 4.7-fold lower in IC50: 0.9 µM for the first, 0.19 µM for the second. The second is the more potent here.

`CN(C)C(=O)CCCn1c(CNCCCNc2cc(=O)c3ccccc3[nH]2)cc2c(Cl)cc(Cl)cc21` and `CCCC(CNCc1ccccc1)CNc1cc(=O)c2ccccc2[nH]1` (stereo not given) are within 1.5-fold of each other in IC50: 1.19 µM for the first, 1.02 µM for the second.

`O=C(NC1CCCCN(Cc2ccccc2O)C1)c1cccc(Cl)c1` (stereo not given) and `CCOC(=O)c1c(NC(=O)c2ccccc2)sc2c(O)c(CNC3CCCCC3)ccc12` are within 1.5-fold of each other in IC50: 1.06 µM for the first, 0.75 µM for the second.

`COc1cccc(CN(C(=O)Nc2ccccc2F)[C@H]2C[C@H]3C(=O)Nc4cc(F)ccc4C(=O)N3C2)c1` and `CC(C)N1CCC(N(Cc2ccc(-c3ccc(Cl)cc3)cc2)C(=O)Cn2c(CCc3cccc(F)c3F)nc(=O)c3ccccc32)CC1` are within 1.5-fold of each other in IC50: 0.84 µM for the first, 0.94 µM for the second.

First: CC1(C)N=C(N)N=C(N)N1OCCCO
Second: COc1ccc(-c2cnc3ccc(NCCCO)nn23)cc1OC
The IC50 of the first is 3-fold lower: 0.22 µM for the first, 0.67 µM for the second.

`COc1ccc(NC(=O)[C@H](C)Nc2cc(C)nc(NCC3CCCCC3)n2)cc1` and `Cc1cc(N[C@@H](CC(C)C)C(=O)Nc2ccccc2)nc(NCCc2ccc(F)cc2)n1` are within 1.5-fold of each other in IC50: 1.28 µM for the first, 1.09 µM for the second.

`CC1(C)Cc2c(oc3ncn(CCn4cnc5oc6c(c5c4=N)CC(C)(C)SC6)c(=N)c23)CS1` and `Oc1ccc(CCNc2nc(NCCCOc3ccccc3-c3cccnc3)nc(N3CCNCC3)n2)cc1` are within 1.5-fold of each other in IC50: 0.72 µM for the first, 1.04 µM for the second.

Going from `Nc1ccc(-c2nc3ccc(-c4ccc5nc(-c6ccc(N)cc6)[nH]c5c4)cc3[nH]2)cc1` to `Cn1cccc1C(=O)C(=O)Nc1ccc(-c2ccc(-c3nc4ccc(F)cc4[nH]3)cc2)cc1`, the IC50 rises from 0.13 µM to 0.84 µM (6.5-fold).

`c1cc(CN2CCc3ccccc3CC2)cc(-c2c[nH]c3nc(NC4CCCC4)ncc23)c1` and `C1=C(c2c[nH]c3ccccc23)CCN(Cc2ccccc2)C1` are within 1.5-fold of each other in IC50: 0.8 µM for the first, 1.04 µM for the second.

`COc1cccc(OC)c1C(=O)Nc1cccc(-c2nn3ccccc3c2-c2ccnc(Nc3cccc(F)c3)n2)c1` and `O=C(NCCN1CCCC1)c1cccc(Nc2nccc(Nc3ccc(Oc4ccccc4)cc3)n2)c1` are within 1.5-fold of each other in IC50: 0.75 µM for the first, 0.65 µM for the second.

Going from `COc1ccc(CNCc2cccc(-c3ccc(-c4nc5c(C)cccc5[nH]4)s3)c2)cc1` to `Cc1cccc2[nH]c(-c3ccc(-c4ccc(CNCc5cccc(N)c5)cc4)s3)nc12`, the IC50 rises from 0.26 µM to 0.75 µM (2.9-fold).

Compared with `NC1CCN(Cc2ccc(-c3ccc(-c4nc5ccc(F)cc5[nH]4)s3)cc2)C1` (stereo not given), `Fc1ccc(Nc2ccnc3cc(-c4cccc(CN5CCCCC5)c4)ccc23)c(Cl)c1` is 22-fold lower in IC50: 0.65 µM for the first, 0.03 µM for the second.

First: Cc1ccc2nc(/N=C(\N)NC(=O)NC3CCCCC3)nc(C)c2c1
Second: CC(C)C1C(O)=C(c2ccc3ccccc3c2)C(=O)N1CC1CCCCC1 (stereo not given)
The IC50 of the first is 1.8-fold lower: 0.62 µM for the first, 1.13 µM for the second.

Going from `COc1cccc(NC(=O)Nc2ccc(C)c(-c3ccc(C(=O)Nc4ccncc4)cc3)c2)c1` to `CCN(CC)CCN(Cc1ccc(-c2ccc(C(F)(F)F)cc2)cc1)C(=O)c1ccc(-c2ccc(NC(=O)OC)cc2C)cc1`, the IC50 rises from 0.52 µM to 0.93 µM (1.8-fold). The first is the more potent here.

Going from `CCOC(=O)c1ccc(N(CCCN(CCCN(c2ccc(C(=O)OCC)cc2)S(=O)(=O)c2ccc(C)cc2)CCc2ccc(O)cc2)S(=O)(=O)c2ccc(C)cc2)cc1` to `CCN(CC)CCN(Cc1ccc(-c2ccc(C(F)(F)F)cc2)cc1)C(=O)Cn1c(CCc2ccc(F)cc2)nc(=O)c2sccc21`, the IC50 falls from 1.05 µM to 0.67 µM (1.6-fold). The second is the more potent here.

Compared with `NC(=O)Nc1ccc2cn[nH]c2c1`, `CCOC(=O)N1CCN(C(=O)Nc2ccc(Cl)cc2)CC1` is 7.2-fold higher in IC50: 0.21 µM for the first, 1.52 µM for the second. The first is the more potent here.

First: Cc1nc(Nc2ccc(C)c(Cl)c2)c2c(C)noc2n1
Second: Cc1cc(NCCc2ccccc2)nc(/N=C(\N)Nc2ccc(Cl)cc2)n1
The IC50 of the first is 3.9-fold higher: 0.89 µM for the first, 0.23 µM for the second. The second is the more potent here.

`CN(CCCCNC(=O)/C=C/c1ccccc1)C1CC2(CCN(C(=O)OC(C)(C)C)CC2)c2ccccc21` (stereo not given) and `O=C(/C=C/c1ccc(Cl)c(Cl)c1)NCCCCCCN1CCCN(C(=O)Nc2ccc(F)c(F)c2)CC1` are within 1.5-fold of each other in IC50: 1.14 µM for the first, 1.24 µM for the second.

Compared with `CCn1ccc2c(N3CCCC3=O)cc(C(=O)N[C@@H](Cc3ccccc3)[C@H](O)CNC3CCCCC3)cc21`, `CCCCCN1CCCC(NS(=O)(=O)c2cccc(C(=O)Nc3cccc(C(F)(F)F)c3)c2)C1` (stereo not given) is 8.9-fold higher in IC50: 0.12 µM for the first, 1.07 µM for the second.

Going from `COc1ccc(CC(Cc2ccc(OC)cc2)NCC(O)c2cccc(Cl)c2)cc1` (stereo not given) to `N[C@@H](Cc1ccc(O)cc1)C(=O)NC(c1ccccc1)c1c(O)ccc2ccccc12` (stereo not given in full), the IC50 rises from 0.16 µM to 0.69 µM (4.3-fold). The first is the more potent here.

`CC(C)(C)OC(=O)NCc1ccc(Nc2nnc(-c3cccc(C(=O)NCCC(c4ccccc4)c4ccccc4)c3)o2)cc1` and `O=C(NCCc1ccccc1)N(Cc1cccc(-c2ccc(CNCc3ccc4c(c3)OCO4)cc2)c1)C1CCN(Cc2ccccc2)CC1` are within 1.5-fold of each other in IC50: 0.58 µM for the first, 0.66 µM for the second.

`CCCCCCN1CCCN(Cc2ccc(C(=O)Nc3ccc(C(C)C)cc3)cc2)CC1` and `CCCc1ccc(NC(=O)c2cccc(CN3CCCN(Cc4cccc(C#N)c4)CC3)c2)cc1` are within 1.5-fold of each other in IC50: 0.83 µM for the first, 0.98 µM for the second.

Going from `COc1cc(Nc2ccnc3ccc(C(F)(F)F)cc23)ccc1OCCCc1ccccc1` to `COc1cc2nc(NCCc3ccccc3)nc(NCCCc3ccccc3)c2cc1OC`, the IC50 falls from 0.77 µM to 0.16 µM (4.8-fold).

Going from `CCCCNc1cc(NCCCC)c2c(n1)[nH]c1ccccc12` to `O=C(NCCCCCN1CCC(c2c[nH]c3ccccc23)CC1)Nc1cccc(Br)c1`, the IC50 rises from 0.57 µM to 1.11 µM (1.9-fold).

Going from `N#Cc1cccc(Nc2nccc(Nc3ccc(Oc4ccccc4)cc3)n2)c1` to `CCN(CC)c1nc(-c2ccccc2)cc(-c2ccccc2)c1C#N`, the IC50 falls from 0.83 µM to 0.45 µM (1.8-fold).

`O=C(NC1c2ccccc2Oc2ccccc21)c1ccccc1O` and `O=C(Nc1cc(Cl)ccc1O)c1ccc(Oc2ccc(C(=O)Nc3cc(Cl)ccc3O)cc2)cc1` are within 1.5-fold of each other in IC50: 0.84 µM for the first, 0.92 µM for the second.

Compared with `CCCCCCN1CCC(NCc2ccc(C(F)(F)F)cc2)CC1`, `CC(C)CCN1CCC(Oc2ccc(NC(=O)c3ccccc3)cc2Cl)CC1` is 3.5-fold higher in IC50: 0.37 µM for the first, 1.3 µM for the second. The first is the more potent here.

First: CCCc1cc(Cc2cnc(N)nc2N)cc(CCC)c1OCCCCC(=O)OC
Second: C#CCN(Cc1cc2c(=O)[nH]c(N)nc2cc1C)c1ccc(C(=O)N[C@@H](CCC(=O)O)C(=O)O)cc1
The IC50 of the first is 16-fold lower: 0.04 µM for the first, 0.63 µM for the second. The first is the more potent here.

`Cc1c[nH]c2cc(/C=C/C(=O)NC3CCC(CCN4CCc5ccc(C#N)cc5CC4)CC3)ccc12` (stereo not given) and `O=C(c1ccc(-c2cnc3[nH]cc(-c4ccc(C(=O)N5CCOCC5)cc4)c3c2)cc1)N1CCOCC1` are within 1.5-fold of each other in IC50: 0.8 µM for the first, 1 µM for the second.

Going from `O=S(=O)(NC1CCN(c2ccnc3cc(Cl)ccc23)C1)c1ccc(F)cc1` (stereo not given) to `CS(=O)(=O)N1CC2(CCN(CCC(NC(=O)NCc3ccc(Cl)c(Cl)c3)c3ccc(Cl)c(Cl)c3)CC2)c2ccccc21` (stereo not given), the IC50 rises from 0.47 µM to 0.8 µM (1.7-fold). The first is the more potent here.

Compared with `O=C(O)C1CC(=O)N(c2ccc(Cl)cc2)C1` (stereo not given), `Cc1cc(C(=O)CN2C(=O)NC3(CCOc4ccccc43)C2=O)c(C)n1Cc1ccco1` (stereo not given) is 2.8-fold higher in IC50: 0.22 µM for the first, 0.61 µM for the second.

`Cc1ccnc(NC(c2ccc(Cl)c([N+](=O)[O-])c2)c2ccc3cccnc3c2O)c1` (stereo not given) gave an IC50 of 0.93 µM.

`COC(=O)c1sccc1NC(=S)NC1CCC(CN2CCC(c3c[nH]c4ccccc34)CC2)CC1` (stereo not given) was tested, and the IC50 was 0.92 µM and 0.57 µM.

Source: PubChem BioAssay AID2305 (GlaxoSmithKline (GSK), 2010)
